Seven compounds from PubChem BioAssay (NCI) can be followed below.

“And” between values parts separate entries of the source, which are not always exact repeats. Equal values may be shown once.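 Dose response: 5 concentrations. Exposure: 48 h. Format: 96-well plates. Endpoint: linear interpolation; highest concentration if not reached. GI50 is the concentration that inhibits growth by half. TGI: total growth inhibition.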 Where only a bound is given, the exact number is not on record here.

Broadly, the GI50 is the concentration at which growth is held to half of that of the control. For orientation: TGI means the concentration at which net growth stops. High values mean lower sensitivity of the cells, low ones greater sensitivity of the cells.

Some test systems named below: EKVX NSCLC; UACC-257 melanoma; HT29 colon; MALME-3M melanoma; SK-MEL-2 melanoma; OVCAR-8 ovarian; MDA-MB-231 breast; UACC-62 melanoma; NCI-H226 lung; PC-3 prostate.
Test in all cases: DTP human tumour cell line panel, 48 h

Take `C=C(C)[C@@H]1CC[C@]2(COC3CCCCO3)CC[C@]3(C)[C@H](CC[C@@H]4[C@@]5(C)C=C(C=O)C(=O)C(C)(C)[C@@H]5CC[C@]43C)[C@@H]12` (stereo partly drawn): the GI50 in the assay with EKVX NSCLC was 1.62 µM; in the assay on UACC-257 melanoma, 2.06 µM; in the assay with HT29 colon, 1.7 µM; in the assay with MALME-3M melanoma, 1.66 µM; in the assay with SK-MEL-2 melanoma, 1.56 µM; with OVCAR-8 ovarian, 1.49 µM. Further, the GI50 is 1.81 µM in the assay with MDA-MB-231 breast, 1.27 µM in the assay on UACC-62 melanoma, 1.95 µM with NCI-H226 lung and 1.1 µM with PC-3 prostate. In addition, the TGI in the assay on EKVX NSCLC was found to be 3.32 µM; in the assay with UACC-257 melanoma it was 4.22 µM; in the assay with HT29 colon, 3.49 µM; with MALME-3M melanoma it was 3.45 µM; in the assay on SK-MEL-2 melanoma it was 3.26 µM; in the assay on OVCAR-8 ovarian, 3.86 µM. The TGI in the assay on MDA-MB-231 breast was found to be 3.82 µM; in the assay with UACC-62 melanoma, 3.55 µM; in the assay with NCI-H226 lung, 4.43 µM; in the assay on PC-3 prostate it was 2.71 µM.
As to `O=[N+]([O-])c1ccc2ncccc2c1Cl`, the GI50 is 12.3 µM in the assay with EKVX NSCLC; 7.62 µM with UACC-257 melanoma; 3.45 µM in the assay on HT29 colon; 15.2 µM in the assay with MALME-3M melanoma; 9.21 µM with SK-MEL-2 melanoma; 2.96 µM with OVCAR-8 ovarian. For the same compound, the GI50 is 3.46 µM with MDA-MB-231 breast, 5.84 µM in the assay on UACC-62 melanoma, 6.22 µM in the assay on NCI-H226 lung and 3.75 µM with PC-3 prostate. Besides, the TGI was found to be 29.2 µM in the assay with EKVX NSCLC; 29.3 µM with UACC-257 melanoma; 9.29 µM in the assay on HT29 colon; 54.4 µM with MALME-3M melanoma; 30.5 µM with SK-MEL-2 melanoma; 8.69 µM in the assay with OVCAR-8 ovarian. Moreover, the total growth inhibition concentration (TGI) was 11.9 µM with MDA-MB-231 breast, 20.4 µM in the assay on UACC-62 melanoma, > 100 µM in the assay on NCI-H226 lung and 20.2 µM in the assay with PC-3 prostate.
For `O=C1/C(=C/c2ccccc2)CN(C(=O)OCc2ccccc2)C/C1=C\c1ccccc1`, the total growth inhibition concentration (TGI) in the assay on EKVX NSCLC was > 31.6 µM; with UACC-257 melanoma it was 28.3 µM; with HT29 colon, 6.31 µM and 25.5 µM; with MALME-3M melanoma, > 46.4 µM; in the assay on SK-MEL-2 melanoma it was 44.8 µM; in the assay with OVCAR-8 ovarian, 9.39 µM and 20.3 µM. Besides, the TGI worked out at 50.4 µM in the assay on MDA-MB-231 breast, 20.2 µM in the assay on UACC-62 melanoma, 35.2 µM with NCI-H226 lung and 57.7 µM in the assay with PC-3 prostate. The values for the GI50 in the assay with UACC-257 melanoma, in the assay with HT29 colon and with OVCAR-8 ovarian were 9.19 µM, 1.87 µM and 3.05 µM, respectively.
On to `Cc1c(NC(=O)OC[C@@H]2COCCN2)cn2ncnc(Nc3ccc4c(cnn4Cc4cccc(F)c4)c3)c12`, for which the concentration for 50% growth inhibition (GI50) in the assay on EKVX NSCLC was 0.716 µM and 0.257 µM; with UACC-257 melanoma, > 10 µM and 5.34 µM; in the assay on HT29 colon, 6.38 µM and 4.65 µM; with MALME-3M melanoma it was > 10 µM and 10.5 µM; with SK-MEL-2 melanoma, > 10 µM and 12.9 µM; in the assay on OVCAR-8 ovarian, > 10 µM and 8.88 µM. Moreover, the GI50 is 4.89 µM and 2.99 µM in the assay on MDA-MB-231 breast; > 10 µM and 4.82 µM with UACC-62 melanoma; > 10 µM and 11.3 µM in the assay on NCI-H226 lung; > 10 µM and 10.2 µM with PC-3 prostate. Moreover, the TGI was > 10 µM and 14.2 µM with EKVX NSCLC; > 10 µM and 18.2 µM in the assay on UACC-257 melanoma; > 10 µM and 16.9 µM in the assay on HT29 colon; > 10 µM and 31.2 µM in the assay with MALME-3M melanoma; > 10 µM and 29.4 µM in the assay on SK-MEL-2 melanoma; > 10 µM and 28.7 µM in the assay on OVCAR-8 ovarian. Moreover, the TGI with MDA-MB-231 breast was > 10 µM and 13.4 µM; in the assay with UACC-62 melanoma it was > 10 µM and 18.7 µM; with NCI-H226 lung it was > 10 µM and 35.6 µM; in the assay on PC-3 prostate, > 10 µM and 31.8 µM.
Consider `COc1ccc(C(=O)COc2cccc(/C=C3\CSc4ccc(C)cc4C3=O)c2)cc1`, for which the GI50 was 25.1 µM in the assay with EKVX NSCLC; 49.2 µM in the assay with UACC-257 melanoma; 6.02 µM in the assay with HT29 colon; 41 µM in the assay on MALME-3M melanoma; 15.9 µM in the assay with SK-MEL-2 melanoma; 5.89 µM in the assay with OVCAR-8 ovarian. In addition, the GI50 with MDA-MB-231 breast was 24 µM; in the assay with UACC-62 melanoma, 14.2 µM; with NCI-H226 lung, > 100 µM; in the assay on PC-3 prostate it was 5.86 µM. For the same compound, the TGI in the assay on EKVX NSCLC, in the assay on UACC-257 melanoma, in the assay with HT29 colon, in the assay on MALME-3M melanoma, in the assay with SK-MEL-2 melanoma and with OVCAR-8 ovarian was > 100 µM each time. The concentration for total growth inhibition (TGI) in the assay on MDA-MB-231 breast, with UACC-62 melanoma, in the assay on NCI-H226 lung and in the assay with PC-3 prostate was > 100 µM throughout.
Take `COc1ccccc1S(=O)(=O)Nc1ccc2c(c1)CN(C)C(=O)N2`: the GI50 is 20.3 µM in the assay with EKVX NSCLC; 4.46 µM and 3.86 µM in the assay with UACC-257 melanoma; 2.55 µM and 2.26 µM with HT29 colon; 4.35 µM and 1.75 µM in the assay with MALME-3M melanoma; 6.48 µM and 29.5 µM in the assay on SK-MEL-2 melanoma; 10.1 µM and 10.8 µM in the assay with OVCAR-8 ovarian. In addition, the GI50 with MDA-MB-231 breast is 4.28 µM and 7.34 µM; in the assay on UACC-62 melanoma, 1.26 µM and 1.12 µM; with NCI-H226 lung, 9.98 µM and 16 µM; with PC-3 prostate, 10.7 µM and 16.3 µM. In addition, the TGI in the assay on EKVX NSCLC, with UACC-257 melanoma, in the assay on HT29 colon, with MALME-3M melanoma, in the assay with SK-MEL-2 melanoma and in the assay with OVCAR-8 ovarian was > 100 µM each time. Besides, the TGI in the assay on MDA-MB-231 breast, with UACC-62 melanoma, with NCI-H226 lung and in the assay with PC-3 prostate was > 100 µM throughout.
For `COc1ccc2c(c1)[n+](=O)c(C(=O)/C=C/c1cc(OC)c(OC)c(OC)c1)c(C)n2[O-]`, the GI50 in the assay with EKVX NSCLC was 1.97 µM; in the assay with UACC-257 melanoma it was 34.1 µM; in the assay with HT29 colon, > 100 µM; in the assay on MALME-3M melanoma, 19.1 µM; in the assay with SK-MEL-2 melanoma, 33.7 µM; with OVCAR-8 ovarian it was 6.03 µM. Moreover, the GI50 with MDA-MB-231 breast was 13.5 µM; in the assay with UACC-62 melanoma, 17.2 µM; with NCI-H226 lung, 26.3 µM; in the assay with PC-3 prostate it was 27.3 µM. Also, the TGI is 15.1 µM in the assay with EKVX NSCLC; > 100 µM in the assay on UACC-257 melanoma; > 100 µM in the assay on HT29 colon; 58.7 µM in the assay on MALME-3M melanoma; > 100 µM with SK-MEL-2 melanoma; 30.3 µM with OVCAR-8 ovarian. Further, the TGI with MDA-MB-231 breast was 35.2 µM; with UACC-62 melanoma it was 37.3 µM; in the assay on NCI-H226 lung it was 82.4 µM; with PC-3 prostate, > 100 µM.
